This note sets out measurements from DBAASP.

Molecules are shown by their SMILES. Values after ≈ are worked out from the molar mass of the structure shown.

Holding throughout (test): ≥ marks a high value that may be exact or a test limit, other limits are often not marked, values filed in µg/mL are converted to µM
Assay [1] deals with Escherichia coli NCTC 10418.
In assay [2] the test system is Staphylococcus aureus NCTC 10788.
The test system of assay [3] is Enterococcus faecalis NCTC 12697.
Assay [4] deals with Candida albicans NCYC 1467.
Assay [5] relates to Pseudomonas aeruginosa ATCC 27853.
Assay [6] relates to Staphylococcus aureus NCTC 12493.
The test system of assay [7] is Pseudomonas aeruginosa H1001.

Usually MIC stands for the smallest concentration in the dilution series that meets the test's criterion for growth inhibition. In the case of `CSCC[C@H](NC(=O)[C@H](CC(=O)O)NC(=O)[C@@H](NC(=O)[C@@H](NC(=O)[C@H](C)NC(=O)[C@H](CC(N)=O)NC(=O)[C@H](CC(C)C)NC(=O)[C@H](C)NC(=O)[C@H](C)NC(=O)[C@H](CCCCN)NC(=O)CNC(=O)[C@H](C)NC(=O)[C@H](C)NC(=O)[C@H](CCCCN)NC(=O)CNC(=O)[C@@H](NC(=O)[C@H](CC(N)=O)NC(=O)[C@H](CCCCN)NC(=O)[C@H](CC(C)C)NC(=O)[C@H](CC(C)C)NC(=O)[C@H](CO)NC(=O)[C@H](CCCCN)NC(=O)[C@H](Cc1c[nH]c2ccccc12)NC(=O)[C@H](CC(C)C)NC(=O)[C@H](C)N)C(C)C)C(C)C)[C@@H](C)O)C(=O)N[C@H](C(=O)N[C@@H](CC(N)=O)C(=O)N[C@@H](CCC(N)=O)C(N)=O)C(C)C` [ALWKSLLKNVGKAAGKAALNAVTDMVNQ], the MIC was 4 µM (≈ 11.6 µg/mL) in assay [1]; 4 µM (≈ 11.6 µg/mL) in assay [2]; ≥ 64 µM in assay [3]; 4 µM (≈ 11.6 µg/mL) in assay [4]; 4 µM (≈ 11.6 µg/mL) in assay [5]; 4 µM (≈ 11.6 µg/mL) in assay [6].

Consider `CC[C@H](C)[C@H](NC(=O)CNC(=O)CNC(=O)[C@H](C)NC(=O)[C@@H](NC(=O)[C@H](CCCCN)NC(=O)[C@@H]1CCCN1C(=O)[C@@H](NC(=O)[C@H](CC(C)C)NC(=O)[C@H](CO)NC(=O)[C@H](CC(C)C)NC(=O)[C@@H](N)Cc1ccccc1)[C@@H](C)CC)[C@@H](C)CC)C(=O)N[C@@H](C)C(=O)N[C@@H](C)C(=O)N[C@@H](CC(C)C)C(=O)N[C@@H](C)C(=O)N[C@@H](CCCCN)C(=O)N[C@@H](Cc1cnc[nH]1)C(=O)N[C@@H](CC(C)C)C(N)=O` [FLSLIPKIAGGIAALAKHL], for which the minimal inhibitory concentration (MIC) in assay [1] was 16.6 µM (≈ 32 µg/mL); in assay [2], 4.14 µM (≈ 8 µg/mL); in assay [3], 16.6 µM (≈ 32 µg/mL); in assay [4], 2.07 µM (≈ 4 µg/mL); in assay [6] it was 4.14 µM (≈ 8 µg/mL).

With `CC[C@H](C)[C@H](NC(=O)[C@H](CCCCN)NC(=O)[C@H](CCCCN)NC(=O)[C@H](Cc1cnc[nH]1)NC(=O)[C@@H](NC(=O)[C@H](CCCN=C(N)N)NC(=O)[C@H](CS)NC(=O)[C@H](CC(C)C)NC(=O)[C@H](CC(C)C)NC(=O)[C@@H](N)CCCCN)C(C)C)C(=O)O` [KLLCRVHKKI], in assay [7], the MIC was ≥ 40.4 µM.

On to `NCCCC[C@H](NC(=O)[C@H](CCCCN)NC(=O)[C@H](Cc1c[nH]c2ccccc12)NC(=O)[C@H](CCCCN)NC(=O)[C@H](Cc1c[nH]c2ccccc12)NC(=O)[C@H](Cc1c[nH]c2ccccc12)NC(=O)[C@H](CCCCN)NC(=O)[C@H](Cc1c[nH]c2ccccc12)NC(=O)[C@@H](N)CCCCN)C(N)=O` [KWKWWKWKK], for which the MIC in assay [7] was ≥ 89 µM.

As for `CC[C@H](C)[C@H](NC(=O)[C@H](CC(C)C)NC(=O)[C@H](C)NC(=O)[C@H](CO)NC(=O)[C@@H](NC(=O)[C@H](CC(C)C)NC(=O)[C@@H](N)CC(N)=O)C(C)C)C(=O)N[C@@H](CCC(=O)O)C(=O)NCC(=O)N[C@@H](CCCN=C(N)N)C(=O)N[C@@H](CCCCN)C(=O)N[C@@H](Cc1ccc(O)cc1)C(=O)N[C@@H](CC(C)C)C(=O)N[C@@H](CCCCN)C(=O)N[C@@H](CC(N)=O)C(=O)N[C@H](C(=O)N[C@@H](CC(C)C)C(=O)N[C@@H](CCCCN)C(=O)O)C(C)C` [NLVSALIEGRKYLKNVLK], the MIC in assay [1] is ≥ 62.2 µM; in assay [2], ≥ 62.2 µM; in assay [4], 31.1 µM (≈ 64 µg/mL); in assay [5] it was > 249 µM.

In assay [7], `CC[C@H](C)[C@H](NC(=O)[C@H](CCCN=C(N)N)NC(=O)[C@H](CCCN=C(N)N)NC(=O)[C@@H]1CCCN1C(=O)[C@H](CCSC)NC(=O)[C@H](CCCN=C(N)N)NC(=O)[C@@H]1CCCN1C(=O)[C@H](CCCN=C(N)N)NC(=O)[C@@H]1CCCN1C(=O)[C@H](CC(C)C)NC(=O)[C@H](Cc1ccc(O)cc1)NC(=O)[C@@H]1CCCN1C(=O)[C@@H]1CCCN1C(=O)[C@H](CCCCN)NC(=O)[C@H](CC(=O)O)NC(=O)[C@@H](N)C(C)C)C(=O)N[C@@H](Cc1ccc(O)cc1)C(=O)N[C@@H](CC(N)=O)C(=O)N[C@@H](CCCN=C(N)N)C(=O)NCC(=O)O` [VDKPPYLPRPRMPRRIYNRG] displayed an MIC of 0.0886 µM (≈ 0.22 µg/mL).
